Test results published in PMC10226132, “First-in-Class Selective Inhibitors of the Lysine Acetyltransferase KAT8” (Journal of Medicinal Chemistry, 2023).

Assays:
[1] = test system: AHH-1 cells; assay: Proliferation of noncancer B lymphocyte AHH-1 cells; type: cell-based, human; settings: 72 h; for effect on proliferation of AHH-1 cells: 25, 50, 100, 200 μM; for IC50: Homo sapiens, AHH-1, NI = no inhibition at 200 µM
Text: (§1) Human commercially available AML U937, breast cancer MCF7, lung adenocarcinoma NCI-H460, H1299 and A-549, glioblastoma U251, B lymphocyte AHH1 cell lines were maintained in compete 10% foetal bovine serum (FBS,) RPMI 1640 (Euroclone, Milan, IT) medium. Human commercially available colon cancer HCT116 and HT29 lines and cervix adenocarcinoma HeLa cells were maintained in compete 10% FBS Dulbecco’s Modified Eagle Medium (DMEM) high glucose medium (Euroclone). L-Glutamine, FBS, and penicillin streptomycin mixture added to medium were obtained from Euroclone. All cell lines were cultured at 37 °C in a humidified atmosphere of 5% CO2:95% air and were tested for mycoplasma contamination routinely by RT-PCR.
(§2) For analysis of cell proliferation, cells were plated in sextuplicate on 96-well plates in complete media. After 24 h, cells were exposed to different drugs for 72 h. The inhibitory effect of different drugs was assessed by MTT (Sigma, St. Louis, MO, USA) colorimetric assays as previously reported.[67] Aqueous DMSO (0.5% v/v) was used as a control (untreated). The results are reported as “viability of drug-treated cells/viability of untreated cells” × 100 and represent the average ±SD of three independent experiments. IC50 values were using fitted by nonlinear regression using GraphPad Prism 8.0.

[2] = molecular target: T1, KAT6A (Homo sapiens, UniProt Q92794); assay: HotSpot KAT assay, KAT6A; type: biochemical; settings: for inhibition at 200 µM: read-out: % inhibition at 200 μM KAT6A (10 nM), NI = no inhibition
T1 construct: KAT6A (aa 488–778, 10 nM); purchased Reaction Biology Corporation
Method: (§3) The effects of the compounds on other KATs were determined using the HotSpot KAT assay (Reaction Biology Corporation, Malvern, PA, USA) according to the supplier’s procedure. The recombinant catalytic domains of human KAT2A (aa 323–837, 15 nM), KAT2B (aa 492–658, 25 nM), KAT3B (aa 1284–1672, 1 nM), KAT6A (aa 488–778, 10 nM), KAT6B (aa 657–1069, 10 nM), and full length human KAT5 (25 nM) and KAT7 (25 nM) were used. Each enzyme was incubated with the relevant histone peptide [H3 peptide for KAT2A, KAT2B, KAT3B, KAT6A, and KAT7 (2.5–5 μM, depending on the KAT isoform); H2A peptide for KAT5 (1.25 μM); H4 peptide for KAT6B (2.5 μM)] as a substrate and radio-isotope-labeled [^3H]Acetyl-CoA (0.2–1.5 μM, depending on the KAT isoform) as an acetyl donor in the assay buffer [50 mM Tris–HCl (pH 8.0), 50 mM NaCl, 0.1 mM EDTA, 1 mM DTT, 0.1 mM PMSF, 1% DMSO] for 1 h at 30 °C in the presence or absence of various compounds (1% DMSO final) titrated in a 2-fold serial dilution starting at 200 μM. Histone peptide acetylation was assessed by liquid scintillation counting using a Tri-Carb 2800TR Liquid Scintillation Analyzer (Perkin Elmer). Experiments were performed in biological triplicates. Signal reduction compared to control was plotted (as inhibition percentage) as a function of compound concentration. In cases in which an IC50 was calculated, the values were fitted by nonlinear regression (GraphPad Prism 8.0).

[3] = test system: HCT116 cells; assay: MTT cell proliferation assay, HCT116; type: cell-based, human; settings: for antiproliferative activity in HCT116: 10, 25, 50, 100 μM, 72 h; for IC50: Homo sapiens, HCT-116, 72 h treatment, MTT
Text: as §1, §2

[4] = test system: U937 cells; assay: MTT cell proliferation assay, U937; type: cell-based, human; settings: for antiproliferative activity in U937: 10, 25, 50, 100 μM; for IC50: 72 h treatment, MTT
Text: as §1, §2

[5] = molecular target: T2, KAT7 (Homo sapiens, UniProt O95251); assay: HotSpot KAT assay, KAT7; type: biochemical; settings: for inhibition at 200 µM: read-out: % inhibition at 200 μM KAT7 (25 nM), NI = no inhibition
T2 construct: full length human KAT5 (25 nM) and KAT7 (25 nM) were used; purchased Reaction Biology Corporation
Method: as §3

[6] = molecular target: T3, KAT6B (Homo sapiens, UniProt Q8WYB5); assay: HotSpot KAT assay, KAT6B; type: biochemical; settings: for inhibition at 200 µM: read-out: % inhibition at 200 μM KAT6B (10 nM), NI = no inhibition
T3 construct: KAT6B (aa 657–1069, 10 nM); purchased Reaction Biology Corporation
Method: as §3

[7] = test system: HT29 cells; assay: MTT cell proliferation assay, HT29; type: cell-based, human; settings: for antiproliferative activity in HT29: 10, 25, 50, 100 μM; for IC50: Homo sapiens, HT-29, 72 h treatment, MTT
Text: as §1, §2

[8] = molecular target: T4, KAT5 (Homo sapiens, UniProt Q92993); assay: HotSpot KAT assay, KAT5; type: biochemical; settings: for inhibition at 200 µM: read-out: % inhibition at 200 μM KAT5 (25 nM), NI = no inhibition
T4 construct: full length human KAT5 (25 nM) and KAT7 (25 nM) were used; purchased Reaction Biology Corporation
Method: as §3

[9] = test system: H4K16Ac in HT29 cells; assay: Western blot of H4K16Ac and KAT8 levels in HT29 cells; type: cell-based, human; settings: increasing concentrations, 24 h
Method: For WB experiments, the cells were lysed in RIPA buffer supplemented with 1× […] protease inhibitor cocktail (Sigma-Aldrich, S8830); 20 μg of total protein was resolved in 13.5% gels by SDS-PAGE. Then, the proteins were transferred to nitrocellulose membranes (Biorad Laboratories). Membranes were blocked for 1 h and incubated overnight with the appropriate primary antibody at 4 °C. After incubation, membranes were washed and incubated with the appropriate secondary antibody (Biorad Laboratories) for 1 h at room temperature. Following primary rabbit monoclonal antibodies H4K16Ac (1:1000, E2B8W, Rabbit mAb#13534, Cell Signalling Technology), KAT8 (1:1000, D5T3R Rabbit mAb #46862 Cell Signalling Technology), GAPDH (1:1000, sc-32233, Santa Cruz Biotechnologies), anti-LC3B (Sigma-Aldrich, L7543), anti-SQSTM1/p62 (Santa Cruz Biotechnology, sc-28,359), and anti-GAPDH (Santa Cruz Biotechnology, sc-32,233). Secondary antibodies: anti-mouse (Bio-Rad Laboratories, 1,706,515) or anti-rabbit (Bio-Rad Laboratories, 1,706,516) IgG-horseradish peroxidase-conjugated antibodies. Detection was performed by ECL Western Blotting Substrate (Biorad Laboratories). Images of blots were acquired through the ChemiDoc Imaging Systems (Biorad Laboratories). The band signals were quantified using ImageJ, and values were normalized to relative controls, depending on the analysis.

[10] = molecular target: T5, KAT2B (Homo sapiens, UniProt Q92831); assay: HotSpot KAT assay, KAT2B; type: biochemical; settings: enzyme 25 nM; NI = no inhibition at 200 μM; mean ± SD of three independent experiments
T5 construct: KAT2B (aa 492–658, 25 nM); purchased Reaction Biology Corporation
Method in brief: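 Radiometric assay: recombinant human catalytic domains (KAT2B aa 492–658, 25 nM; KAT6A aa 488–778, 10 nM; KAT6B aa 657–1069, 10 nM) or full-length KAT7 (25 nM), with H3 peptide (H4 for KAT6B, 2.5 μM) and [3H]acetyl-CoA, pH 8.0, 1 h, 30 °C. Compounds 2-fold from 200 μM; scintillation counting, triplicates, IC50 by nonlinear regression.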

T3 sequence (Q8WYB5 657-1069): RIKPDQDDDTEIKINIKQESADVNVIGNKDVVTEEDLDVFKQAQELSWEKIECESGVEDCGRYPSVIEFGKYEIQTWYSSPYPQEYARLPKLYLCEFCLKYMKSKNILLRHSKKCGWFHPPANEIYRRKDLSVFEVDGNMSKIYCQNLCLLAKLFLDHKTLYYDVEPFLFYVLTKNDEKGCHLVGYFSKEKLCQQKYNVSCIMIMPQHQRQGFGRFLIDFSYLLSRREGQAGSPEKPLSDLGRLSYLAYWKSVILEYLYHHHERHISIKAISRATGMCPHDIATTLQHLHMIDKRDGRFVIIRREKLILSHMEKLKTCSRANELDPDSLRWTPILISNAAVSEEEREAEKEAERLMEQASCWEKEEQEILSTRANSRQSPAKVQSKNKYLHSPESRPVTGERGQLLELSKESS
T1 sequence (Q92794 488-778): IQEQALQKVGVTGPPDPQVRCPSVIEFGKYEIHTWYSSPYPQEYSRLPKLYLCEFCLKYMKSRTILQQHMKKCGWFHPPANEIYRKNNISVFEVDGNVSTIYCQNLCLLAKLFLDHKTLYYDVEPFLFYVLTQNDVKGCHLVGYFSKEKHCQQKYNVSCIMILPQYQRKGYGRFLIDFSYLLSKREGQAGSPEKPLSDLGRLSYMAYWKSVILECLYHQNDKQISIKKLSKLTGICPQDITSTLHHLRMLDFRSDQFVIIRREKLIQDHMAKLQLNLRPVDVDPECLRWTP
T5 sequence (Q92831 492-658): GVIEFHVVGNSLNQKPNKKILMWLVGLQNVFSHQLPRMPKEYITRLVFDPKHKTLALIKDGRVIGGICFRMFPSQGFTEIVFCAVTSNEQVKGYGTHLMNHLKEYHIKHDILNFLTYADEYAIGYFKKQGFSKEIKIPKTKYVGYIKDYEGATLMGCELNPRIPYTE
T4 sequence (Q92993 whole entry): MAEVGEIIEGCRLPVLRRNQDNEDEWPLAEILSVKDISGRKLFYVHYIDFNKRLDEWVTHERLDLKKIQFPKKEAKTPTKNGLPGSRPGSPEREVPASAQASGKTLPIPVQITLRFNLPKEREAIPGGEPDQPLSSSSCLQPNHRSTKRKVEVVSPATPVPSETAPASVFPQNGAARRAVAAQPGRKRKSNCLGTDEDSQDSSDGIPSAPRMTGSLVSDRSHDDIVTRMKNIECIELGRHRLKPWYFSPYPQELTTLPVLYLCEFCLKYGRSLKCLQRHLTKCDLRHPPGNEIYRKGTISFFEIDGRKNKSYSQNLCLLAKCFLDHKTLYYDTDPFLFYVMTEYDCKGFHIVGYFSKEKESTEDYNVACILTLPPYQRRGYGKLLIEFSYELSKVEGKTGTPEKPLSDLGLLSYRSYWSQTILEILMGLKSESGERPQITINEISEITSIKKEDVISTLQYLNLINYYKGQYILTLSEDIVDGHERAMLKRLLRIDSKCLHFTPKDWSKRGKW
T2 sequence (O95251 whole entry): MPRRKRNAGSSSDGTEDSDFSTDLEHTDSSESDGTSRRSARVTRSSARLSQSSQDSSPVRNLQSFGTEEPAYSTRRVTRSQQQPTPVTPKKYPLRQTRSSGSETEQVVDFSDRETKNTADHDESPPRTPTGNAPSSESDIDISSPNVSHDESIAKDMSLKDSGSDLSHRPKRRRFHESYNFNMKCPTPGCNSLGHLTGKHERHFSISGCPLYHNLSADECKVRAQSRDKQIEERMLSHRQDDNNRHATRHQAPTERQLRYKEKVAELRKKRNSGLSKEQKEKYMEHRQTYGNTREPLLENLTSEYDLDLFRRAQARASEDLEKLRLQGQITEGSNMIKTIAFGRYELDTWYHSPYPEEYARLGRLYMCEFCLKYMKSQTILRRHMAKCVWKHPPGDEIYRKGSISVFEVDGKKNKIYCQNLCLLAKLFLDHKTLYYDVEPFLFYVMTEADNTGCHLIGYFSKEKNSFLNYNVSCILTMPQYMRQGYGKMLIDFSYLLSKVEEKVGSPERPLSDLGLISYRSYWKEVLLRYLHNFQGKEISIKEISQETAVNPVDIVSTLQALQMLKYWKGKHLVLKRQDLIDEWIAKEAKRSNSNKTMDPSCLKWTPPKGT

inhibition at 200 µM [2] [%]	IC50 [3] [µM]	IC50 ([4]; Homo sapiens, U-937) [µM]	inhibition at 200 µM [5] [%]	inhibition at 200 µM [6] [%]	IC50 [7] [µM]	inhibition at 200 µM [8] [%]	IC50 [10] [µM]	Structure (SMILES)	effect on proliferation of AHH-1 cells [1]	IC50 [1] [µM]	antiproliferative activity in HCT116 [3]	antiproliferative activity in U937 ([4]; 72 h)	antiproliferative activity in HT29 ([7]; 72 h)	KAT8 expression level (WB) [9]	histone H4K16 acetylation levels (WB) [9]	also measured
20.9 ± 0.4	46.6 ± 11.5	51.7 ± 9.5	16.9 ± 0.7	19.6 ± 1	54 ± 10.9	18.5 ± 1.3	> 200	O=C(O)c1ccc(N2N=C(c3ccccc3)/C(=C/c3ccc[nH]3)C2=O)cc1 [Compound 34, (Z)-4-(4-((1H-Pyrrol-2-yl)methylene)-5-oxo-3-phenyl-4,5-dihydro-1H-pyrazol-1-yl)benzoic Acid]	did not significantly affect the proliferation	> 200	dose-dependent antiproliferative effects	dose-dependent antiproliferative effects	a certain degree of antiproliferative activity	no consistent variation in KAT8 levels	induced a decrease in histone H4 acetylation levels	decrease of cell viability, HT29 ([7]; 100 μM, 72 h): 70%
0	39.4 ± 8.2	30.1 ± 1.7	0	4.8 ± 1.6	> 100	11.3 ± 0.3	> 200	CC1=NN(c2ccc(C(=O)O)cc2)C(=O)/C1=C\c1ccc[nH]1 [Compound 19, (Z)-4-(4-((1H-Pyrrol-2-yl)methylene)-3-methyl-5-oxo-4,5-dihydro-1H-pyrazol-1-yl)benzoic Acid]	did not significantly affect the proliferation	> 200	dose-dependent antiproliferative effects	dose-dependent antiproliferative effects	a certain degree of antiproliferative activity	no consistent variation in KAT8 levels	induced a decrease in histone H4 acetylation levels	inhibition at 50 µM ([4]; Homo sapiens, U-937, 50 μM, 72 h): ~70%; inhibition at 100 µM ([4]; Homo sapiens, U-937, 100 μM, 72 h): > 80%; IC50 KAT2B (25 nM) [10]: no inhibition at 200 μM
							> 200	CC1=NN(c2ccc(C(=O)O)cc2)C(=O)/C1=C\c1ccc(-c2cc(C)c(C)cc2[N+](=O)[O-])o1 [VII (C646), reference compound]								IC50 ([2]; read-out: IC50 KAT6A (10 nM), control compound): 15 µM; IC50 ([5]; control compound, read-out: IC50 KAT7 (25 nM)): 8 µM; IC50 ([6]; read-out: IC50 KAT6B (10 nM), control compound): 5.6 µM; IC50 ([8]; control compound, read-out: IC50 KAT5 (25 nM)): 18.3 µM
